What was measured:
Assay type in all cases: cell-based, human
L1CAM [1] = assay: L1CAM expression in PT45-P1res cells (western blotting, flow cytometry, real-time PCR); details: inhibitor 10 μmol/L, 24 hours
Description: After washing in PBS, cells grown in 6-well culture plates were detached with 5 mmol/L EDTA in PBS and then washed with PBS once again. Blocking was conducted in 1% BSA/PBS for 60 min. at room temperature followed by incubation with the anti L1CAM antibody L1-11A or an isotype matched control antibody (1:1000, in 1% BSA/PBS) at 4° C. overnight. Then, cells were washed three times in PBS followed by incubation (60 min, 37° C.) with a goat-anti mouse antibody conjugated with Alexa flour 488 (Dianova, Hamburg, Germany) diluted 1:500 in 1% BSA/PBS. After washing in PBS, cells were resuspended in 500 μL PBS and analysed by fluorescence flow cytometry.
(§1) Cells were seeded into 6 well and 12 well plates, respectively, and transfected or treated as indicated. Then, cells were washed once with PBS and lysed with 1 volume of 2×SDS sample buffer (128 mmol/L Tris-Base, 4.6% SDS, 10% glycerol). Samples were heated for 5 minutes at 95° C. and put on ice for 2 minutes. Protein concentrations were determined using the Dc Protein assay (BioRad). Ten μg of protein adjusted to an appropriate volume of SDS sample buffer containing 0.2 mg/mL bromphenolblue (Serva, Heidelberg, Germany) and 2.5% β-mercaptoethanol (Biomol, Hamburg, Germany) were submitted to electrophoresis on a 4-20% ProGel-Tris-glycin-gel (Anamed, Darmstadt, Germany) and immunoblotting was performed as described previously (Arlt et al, 2001). For detection of L1CAM, a monoclonal antibody (clone UJ127 from Acris Antibodies) was diluted at a concentration of 0.4 μg/mL in 5% nonfat milk powder and 0.05% Tween in TBS (blotto) and incubated overnight at 4° C. For detection of the cytoplasmic domain of L1CAM, the pcytL1 antibody (Mechtersheimer et al., 2001) was used at a concentration of 1 μg/mL in blotto and incubated overnight at 4° C. As control of equal protein load, a polyclonal rabbit antibody for HSP90 (Santa Cruz, Heidelberg, Germany) was diluted 1:2000 in blotto. The mouse anti CD51 antibody from Beckman Coulter GmbH (Krefeld, Germany) was used at a concentration of 1:500 in blotto for detection of human αv integrin. Incubation with the primary antibodies was performed overnight at 4° C. For detection of the primary antibodies, anti-mouse and anti-rabbit HRP-linked antibodies (Cell Signaling), respectively, were used at a dilution of 1:2000 in blotto-TBST at room temperature for 1 hour. After washing in TBST, blots were developed using the LumiGlo peroxidase detection kit (Cell Signaling).
2 μg of total RNA were reverse-transcribed into single-stranded cDNA, as described previously (Schafer et al., 1999). Two μL of cDNA and 0.2 μmol/L gene-specific primers were adjusted with RNAse-free water to a volume of 15 μL. To this mixture, 15 μL of iQ SYBR Green Supermix (BioRad) were added. Primers for the detection of L1CAM (Gavert et al., 2005) were used under the following conditions: 95° C./1 min; 95° C./1 min, 52° C./30 see, 72° C./30 see for 40 cycles; 72° C./10 min. Primers for the detection of iNOS were from Biosource (Ratingen, Germany) and used under the following PCR conditions: 95° C./5 min; 95° C./45 sec, 60° C./45 sec, 72° C./45 sec for 40 cycles; 72° C./10 min. For control, β-actin was amplified in parallel using primers from BD Biosciences Clontech. […] Data were collected during annealing steps and were further analysed by using the i-Cycler iQ Optical system software (BioRad). All samples were analysed in duplicates and data are expressed as amount of mRNA in arbitrary units.

L1CAM [2] = assay: L1CAM cleavage by western blotting in L1CAM transfected PT45-P1 cells; details: inhibitor 10 μmol/L, 24 hours
Description: PT45-P1res cells (a,b) or PT45-P1 cells transfected with L1CAM or an empty control vector (mock) (c,d) were left untreated (w/o) or were either treated with Tapi-0, Tapi-1, GM6001 or L685,458 (each 10 μmol/L) for 24 hours. (a,c) Cellular lysates were subjected to western blotting using either the antibody clone UJ127 from Acris detecting only full-length L1CAM or the pcytL1 antibody detecting also the cytoplasmic part of L1CAM. HSP90 was detected as a control for equal protein load. (b,d) Thirty minutes after treatment with the respective inhibitor, cells were either left untreated or treated with 20 μg/mL etoposide for 24 hours. Then, cells were analysed for caspase-3/-7 activity expressed as n-fold induction of caspase-3/-7 activity of basal. Means±SD from three independent experiments are shown. * indicates p<0.05.
as §1

ERK phosphorylation = ERK phosphorylation in SKOV3ip cells; details: treatment with DAPT, TAPI-0
Description: (A) Analysis of L1-32 cleavage by γ-secretase. Cells were treated for 48 h at 37° C. with presenilin inhibitor IX (DAPT) or for control with DMSO. Isolated membranes were incubated for 2 h at 37° C. and then separated into pellet or supernatant (SN) fractions by ultracentrifugation. Lanes 1 to 2 show cells treated with DMSO (vehicle). Lanes 3 and 4 show cells preincubated with DAPT. (B) SKOV3ip cells were treated with DAPT either in the presence or absence of the metalloprotease inhibitor TAPI-0 for 24 hr. Cells were lysed in BOG lysis buffer and analyzed by Western blot analysis. The cell supernatant was analyzed for soluble L1 using mAb L1-11A and the cell lysate was examined for L1-32 using peytL1. (C) HEK293 or HEK293-hL1wt cells were treated with DMSO, DAPT, TAPI-0 or both inhibitors for 96 h. mRNA was transcribed to cDNA and analyzed by qPCR for the genes CRABPII and cathepsin B. (D) Analysis of ERK phosphorylation in SKOV3ip cells after treatment with the indicated compounds.
(A) Effect of L1-antibodies on ERK phosphorylation in SKOV3ip cells. The cells were incubated for 24 hr at 37° C. with the indicated purified antibodies to L1 (10 μg/ml) or isotype control IgG. […] Soluble L1 in the supernant and L1-32 in the cell lysate were analyzed by Western blot. (C) mRNA was isolated from antibody treated SKOV3ip cells, transcribed to cDNA and analyzed by qPCR for the indicated genes. […]

CC(C)C[C@H](CC(=O)NO)C(=O)N[C@@H](Cc1ccc2ccccc2c1)C(=O)N[C@@H](C)C(N)=O [TAPI-0]
L1CAM expression (full-length 220 kDa and 32 kD fragment) (L1CAM [1]): neither of the inhibitors changed L1 CAM expression
expression of full-length L1CAM and level of the 32 kD fragment (L1CAM [2]): did neither influence the expression of full-length L1CAM nor increased the level of the 32 kD fragment
ERK activation in treated cells (ERK phosphorylation): did not interfere with ERK activation

Reference: patent US20080299123A1, “TREATMENT OF CHEMOTHERAPY- OR RADIOTHERAPY-RESISTANT TUMORS” (Deutsches Krebsforschungszentrum Stiftung des offentlichen …, priority 2006, published 2008)
